Tested on: PTEN-null endometrial glands (latent endometrial precancers)
Experiment: Latent precancers (PTEN-null glands by immunohistochemistry) in paired endometrial biopsies before and after progestin therapy
Type: in vivo, women
Conditions: pre versus post therapy
Experimental: Women in Northern Norway (Tromso region) with successive endometrial biopsies taken under different hormonal conditions form the three main experimental groups of this study. Clinical aspects of these patients have been published elsewhere (Vereide, et al., Gynecol Oncol 91:526-33 (2003)), but will be summarized here. […] Just under half (10 of 22 reported in results) received low dose hormonal replacement therapy as follows: norestrin 1 mg/estradiol 2mg daily (6 patients), estriol 1-2mg daily (3 patients), tibolone 2.5 mg daily (1 patient), no therapy (12 patients). All patient materials were compiled from existing pathologic tissues generated as part of routine patient care (“discarded materials”), except for the P-IUD group, which was consented in advance. […]
Paraffin sections of endometrial biopsy and curetting specimens were rehydrated, and underwent antigen retrieval by microwave before overnight (4° C.) incubation with 1:300 murine monoclonal anti-PTEN antibody 6h2.1 (Cascade Biosciences, Winchester, Mass.) as previously described (Mutter, et al, Cancer Res 61:43114 (2001)). Slides were washed, and incubated with appropriate secondary biotinylated immunoglobulin (Vectastain ABC kit, Vector Laboratories, Inc., Burlingame, Calif.) and signal detected by sequential addition of avidin peroxidase and 3,3′-diaminobenzidine. […]

## CC(=O)[C@@]1(O)CC[C@H]2[C@@H]3C[C@H](C)C4=CC(=O)CC[C@]4(C)[C@H]3CC[C@@]21C [p-cycle, medroxyprogesterone]
  Change of latent precancers after therapy (in words): non-significant changes
